Measurements: PubChem BioAssay (NCI)
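Exposure lasted 48 hours, with cells grown in 96-well plates and compounds tested at five concentrations. At the GI50, growth is halved. TGI marks complete inhibition of growth.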

Columns and labels:
Assay in all cases: growth of human tumour cells (NCI), 48 h
786-0 renal = system: 786-0 renal
A498 renal = system: A498 renal
A549 NSCLC = system: A549 NSCLC
ACHN renal = system: ACHN renal
BT-549 breast = system: BT-549 breast
CAKI-1 renal = system: CAKI-1 renal
CCRF-CEM leukemia = system: CCRF-CEM leukemia
COLO 205 colon = system: COLO 205 colon
DU-145 prostate = system: DU-145 prostate
EKVX NSCLC = system: EKVX NSCLC
HCC-2998 colon = system: HCC-2998 colon
HCT-116 colon = system: HCT-116 colon
HCT-15 colon = system: HCT-15 colon
HL-60(TB) leukemia = system: HL-60(TB) leukemia
HOP-62 NSCLC = system: HOP-62 NSCLC
HOP-92 NSCLC = system: HOP-92 NSCLC
HS 578T breast = system: HS 578T breast
HT29 colon = system: HT29 colon
IGROV1 ovarian = system: IGROV1 ovarian
K-562 leukemia = system: K-562 leukemia
KM12 colon = system: KM12 colon
LOX IMVI melanoma = system: LOX IMVI melanoma
M14 melanoma = system: M14 melanoma
MALME-3M melanoma = system: MALME-3M melanoma
MCF7 breast = system: MCF7 breast
MDA-MB-231 breast = system: MDA-MB-231 breast
MDA-MB-435 = system: MDA-MB-435
MDA-MB-468 breast = system: MDA-MB-468 breast
MOLT-4 leukemia = system: MOLT-4 leukemia
NCI-H226 lung = system: NCI-H226 lung
NCI-H23 lung = system: NCI-H23 lung
NCI-H460 lung = system: NCI-H460 lung
NCI-H522 lung = system: NCI-H522 lung
OVCAR-3 ovarian = system: OVCAR-3 ovarian
OVCAR-4 ovarian = system: OVCAR-4 ovarian
OVCAR-5 ovarian = system: OVCAR-5 ovarian
OVCAR-8 ovarian = system: OVCAR-8 ovarian
PC-3 prostate = system: PC-3 prostate
RPMI-8226 leukemia = system: RPMI-8226 leukemia
RXF 393 renal = system: RXF 393 renal
SF-268 CNS = system: SF-268 CNS
SF-295 CNS = system: SF-295 CNS
SF-539 CNS = system: SF-539 CNS
SK-MEL-2 melanoma = system: SK-MEL-2 melanoma
SK-MEL-28 melanoma = system: SK-MEL-28 melanoma
SK-MEL-5 melanoma = system: SK-MEL-5 melanoma
SK-OV-3 ovarian = system: SK-OV-3 ovarian
SN12C renal = system: SN12C renal
SNB-19 CNS = system: SNB-19 CNS
SNB-75 CNS = system: SNB-75 CNS
SR leukemia = system: SR leukemia
SW-620 colon = system: SW-620 colon
T-47D breast = system: T-47D breast
TK-10 renal = system: TK-10 renal
U251 CNS = system: U251 CNS
UACC-257 melanoma = system: UACC-257 melanoma
UACC-62 melanoma = system: UACC-62 melanoma
UO-31 renal = system: UO-31 renal

## O=C(c1ccc(O)cc1)C1[C@H](c2ccc(Br)cc2)[C@@H](c2ccccc2)NC12C(=O)Nc1ccc(Br)cc12 (stereo partly specified)
786-0 renal
  GI50: 5.22 µM
  TGI: 9.86 µM
A498 renal
  GI50: 4.24 µM
  TGI: 8.7 µM
A549 NSCLC
  GI50: 3.59 µM
  TGI: 8.38 µM
ACHN renal
  GI50: 4.03 µM
  TGI: 8.21 µM
BT-549 breast
  GI50: 5.54 µM
  TGI: 10.4 µM
CAKI-1 renal
  GI50: 2.28 µM
  TGI: 7.08 µM
CCRF-CEM leukemia
  GI50: 5.09 µM
  TGI: 11.6 µM
COLO 205 colon
  GI50: 4.57 µM
  TGI: 9.99 µM
DU-145 prostate
  GI50: 5.23 µM
  TGI: 10 µM
EKVX NSCLC
  GI50: 4.19 µM
  TGI: 9.07 µM
HCC-2998 colon
  GI50: 4.19 µM
  TGI: 8.86 µM
HCT-116 colon
  GI50: 4.16 µM
  TGI: 8.63 µM
HCT-15 colon
  GI50: 4.16 µM
  TGI: 9.35 µM
HL-60(TB) leukemia
  GI50: 7.39 µM
  TGI: 16.7 µM
HOP-62 NSCLC
  GI50: 4.81 µM
  TGI: 9.7 µM
HOP-92 NSCLC
  GI50: 4.39 µM
  TGI: 9.26 µM
HS 578T breast
  GI50: 4.95 µM
  TGI: 12.9 µM
HT29 colon
  GI50: 4.48 µM
  TGI: 9.48 µM
IGROV1 ovarian
  GI50: 3.88 µM
  TGI: 8.19 µM
K-562 leukemia
  GI50: 4.72 µM
  TGI: 11.8 µM
KM12 colon
  GI50: 4.5 µM
  TGI: 10.1 µM
LOX IMVI melanoma
  GI50: 4.36 µM
  TGI: 9.1 µM
M14 melanoma
  GI50: 4.52 µM
  TGI: 9.24 µM
MALME-3M melanoma
  GI50: 4.96 µM
  TGI: 9.61 µM
MCF7 breast
  GI50: 3.89 µM
  TGI: 9.13 µM
MDA-MB-231 breast
  GI50: 4.25 µM
  TGI: 8.61 µM
MDA-MB-435
  GI50: 5.81 µM
  TGI: 11.1 µM
MDA-MB-468 breast
  GI50: 4.58 µM
  TGI: 9.97 µM
MOLT-4 leukemia
  GI50: 3.39 µM
  TGI: 9.62 µM
NCI-H226 lung
  GI50: 4.39 µM
  TGI: 9.76 µM
NCI-H23 lung
  GI50: 4.9 µM
  TGI: 9.81 µM
NCI-H460 lung
  GI50: 4.29 µM
  TGI: 8.92 µM
NCI-H522 lung
  GI50: 4.45 µM
  TGI: 9.15 µM
OVCAR-3 ovarian
  GI50: 5.21 µM
  TGI: 10.1 µM
OVCAR-4 ovarian
  GI50: 4.82 µM
  TGI: 9.63 µM
OVCAR-5 ovarian
  GI50: 4.83 µM
  TGI: 9.34 µM
OVCAR-8 ovarian
  GI50: 5.06 µM
  TGI: 9.8 µM
PC-3 prostate
  GI50: 4.14 µM
  TGI: 9.22 µM
RPMI-8226 leukemia
  GI50: 5.97 µM
  TGI: 19 µM
RXF 393 renal
  GI50: 3.54 µM
  TGI: 8.33 µM
SF-268 CNS
  GI50: 4.56 µM
  TGI: 10.2 µM
SF-295 CNS
  GI50: 4.23 µM
  TGI: 8.81 µM
SF-539 CNS
  GI50: 5.34 µM
  TGI: 10 µM
SK-MEL-2 melanoma
  GI50: 4.95 µM
  TGI: 9.48 µM
SK-MEL-28 melanoma
  GI50: 5.3 µM
  TGI: 9.96 µM
SK-MEL-5 melanoma
  GI50: 5.63 µM
  TGI: 10.4 µM
SK-OV-3 ovarian
  GI50: 4.51 µM
  TGI: 9.21 µM
SN12C renal
  GI50: 4.53 µM
  TGI: 8.99 µM
SNB-19 CNS
  GI50: 5.11 µM
  TGI: 9.75 µM
SNB-75 CNS
  GI50: 2.12 µM
  TGI: 7.06 µM
SR leukemia
  GI50: 3.79 µM
  TGI: 9.3 µM
SW-620 colon
  GI50: 5.08 µM
  TGI: 10.2 µM
T-47D breast
  GI50: 3.93 µM
  TGI: 8.58 µM
TK-10 renal
  GI50: 4.44 µM
  TGI: 8.86 µM
U251 CNS
  GI50: 4.96 µM
  TGI: 9.62 µM
UACC-257 melanoma
  GI50: 4.93 µM
  TGI: 9.52 µM
UACC-62 melanoma
  GI50: 4.22 µM
  TGI: 8.54 µM
UO-31 renal
  GI50: 2.66 µM
  TGI: 7.08 µM
